Measured values: patent US8859535B2, “Hydroxy substituted isoquinolinone derivatives” (Novartis AG, priority 2011, dated 2014)

Tests used:
Format in all cases: binding
[1] = biological target: T1, human MDM4 protein (amino acids 2-185) (Homo sapiens, UniProt O15151); assay: p53-MDM4 TR-FRET assay (p53-MDM4 Assay 1); details: 2.5 nM MDM4-biotinylated, 10 nM Cy5-p53 peptide; read-out: IC50 (μM) of p53-Hdm4 inhibition (TR-FRET) Assay 1
T1 construct: human MDM4 protein (amino acids 2-185); made in house
T1 sequence (O15151 2-185): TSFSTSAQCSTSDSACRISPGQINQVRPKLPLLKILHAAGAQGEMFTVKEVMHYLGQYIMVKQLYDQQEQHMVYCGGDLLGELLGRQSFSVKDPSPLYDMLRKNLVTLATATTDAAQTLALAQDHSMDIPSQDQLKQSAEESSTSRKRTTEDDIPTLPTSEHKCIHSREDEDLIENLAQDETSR
Outline: (§1)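 Peptide displacement read as 665/620 nm TR-FRET ratio (excitation 340 nm) after 15 min room temperature with 10 nM Cy5-p53 aa18-26, following 15 min preincubation of Eu-streptavidin (0.625 nM) with biotinylated MDM4 aa 2-185 (2.5 nM) or MDM2 aa 2-188 (1.25 nM); IC50 curve-fitted. MDM2 Assay 2: MDM2 and Eu-streptavidin each 0.1 nM.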

[2] = biological target: T2, human MDM2 protein (amino acids 2-188) (Homo sapiens, UniProt Q00987); assay: p53-MDM2 TR-FRET assay (p53-MDM2 Assay 1); details: 1.25 nM MDM2-biotinylated, 10 nM Cy5-p53 peptide; read-out: IC50 (μM) of p53-Hdm2 inhibition (TR-FRET) Assay 1
T2 construct: human MDM2 protein (amino acids 2-188); made in house
T2 sequence (Q00987 2-188): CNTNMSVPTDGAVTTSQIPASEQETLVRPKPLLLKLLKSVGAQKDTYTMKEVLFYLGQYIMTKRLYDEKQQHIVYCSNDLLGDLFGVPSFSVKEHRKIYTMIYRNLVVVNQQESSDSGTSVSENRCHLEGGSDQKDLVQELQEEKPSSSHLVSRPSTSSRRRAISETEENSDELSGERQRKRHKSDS
Outline: as §1

[3] = biological target: T2, human MDM2 protein (amino acids 2-188); assay: p53-MDM2 TR-FRET assay, modified (p53-MDM2 Assay 2); details: 0.1 nM MDM2, 0.1 nM Europium labeled streptavidin; read-out: IC50 (nM) of p53-Hdm2 inhibition (TR-FRET) Assay 2
Protocol: Time Resolved Fluorescence Energy Transfer (TR-FRET) Assay
The inhibition of p53-MDM2 and p53-MDM4 interactions is measured by time resolved fluorescence energy transfer (TR-FRET). Fluorescence energy transfer (or Foerster resonance energy transfer) describes an energy transfer between donor and acceptor fluorescent molecules. For this assay, human MDM2 protein (amino acids 2-188) and human MDM4 protein (amino acids 2-185), tagged with a C-terminal biotin moiety, are used in combination with a Europium labeled streptavidin (Perkin Elmer, Inc., Waltham, Mass., USA) serving as the donor fluorophore. The p53 derived, Cy5 labeled peptide Cy5-TFSDLWKLL (p53 aa18-26) is the energy acceptor. Upon excitation of the donor molecule at 340 nm, binding interaction between MDM2 or MDM4 and the p53 peptide induces energy transfer and enhanced response at the acceptor emission wavelength at 665 nm. Disruption of the formation of the p53-MDM2 or p53-MDM4 complex due to an inhibitor molecule binding to the p53 binding site of MDM2 or MDM4 results in increased donor emission at 620 nm. The ratiometric FRET assay readout is calculated from the raw data of the two distinct fluorescence signals measured in time resolved mode (fluorescence 665 nm/fluorescence 620 nm×1000).
After addition of 1.25 nM MDM2-biotinylated or 2.5 nM MDM4-biotinylated (internal preparations), and 0.625 nM Europium labeled streptavidin (Perkin Elmer), the solution is pre-incubated for 15 minutes at room temperature, then 10 nM Cy5-p53 peptide (internal preparation) is added before an incubation at room temperature for 15 minutes prior to reading the plate. For measurement of samples, a Victor II microplate reader (Perkin Elmer) is used with the following settings: Excitation 340 nm, Emission Donor 620 nm and Emission Acceptor 665 nm. IC50 values are calculated by curve fitting using XLfit. If not specified, reagents are purchased from Sigma-Aldrich Chemie GmBH, Buchs, Switzerland.
This assay was used to evaluate compounds displaying inhibition of p53-MDM2 interaction and p53-MDM4 interaction at IC50s of 0.005 to 50 μM (p53-MDM2 Assay 1 and p53-MDM4 Assay 1, respectively). For selected compounds displaying IC50s between […] on MDM2, a slightly modified assay is used with the following adaptations: 0.1 nM MDM2, 0.1 nM Europium labeled streptavidin and Tecan genios Pro is used as a microplate reader for the fluorescence measurements (p53-MDM2 Assay 2).

SMILES	IC50 [1] [µM]	IC50 [2] [µM]	IC50 [3] [nM]
CC[C@@H](C)Oc1cc2c(cc1OC)CC(=O)N(c1ccc(C(C)(O)C3CCN(C(C)=O)CC3)cc1)[C@H]2c1ccc(Cl)cc1 (stereo partly drawn) [Example 52, (S)-2-{4-[1-(1-Acetyl-piperidin-4-yl)-1-hydroxy-ethyl]-phenyl}-7-((R)-sec-butoxy)-1-(4-chloro-phenyl)-6-methoxy-1,4-dihydro-2H-isoquinolin-3-one]	2.32	0.0018	1.98
COC(=O)N1CCC(C(C)(O)c2ccc(N3C(=O)Cc4cc(OC)c(OC(C)C)cc4[C@@H]3c3ccc(Cl)cc3)cc2)CC1 (stereo partly drawn) [Example 76, 4-(1-{4-[(S)-1-(4-Chloro-phenyl)-7-isopropoxy-6-methoxy-3-oxo-3,4-dihydro-1H-isoquinolin-2-yl]-phenyl}-1-hydroxy-ethyl)-piperidine-1-carboxylic acid methyl ester]	1.91	0.0017	2.34
COc1cc2c(cc1OC(C)C)[C@H](c1ccc(Cl)cc1)N(c1ccc(C(C)(O)C3CCN(CCO)CC3)cc1)C(=O)C2 (stereo partly drawn) [Example 93, (S)-1-(4-Chloro-phenyl)-2-(4-{1-hydroxy-1-[1-(2-hydroxy-ethyl)-piperidin-4-yl]-ethyl}-phenyl)-7-isopropoxy-6-methoxy-1,4-dihydro-2H-isoquinolin-3-one]	3.35	0.0027	2.3
COc1cc2c(cc1OC(C)C)[C@H](c1ccc(Cl)cc1)N(c1ccc(C(C)(O)C3CCN(C4CCC4)CC3)cc1)C(=O)C2 (stereo partly drawn) [Example 97, (S)-1-(4-Chloro-phenyl)-2-{4-[1-(1-cyclobutyl-piperidin-4-yl)-1-hydroxy-ethyl]-phenyl}-7-isopropoxy-6-methoxy-1,4-dihydro-2H-isoquinolin-3-one]	2.43	0.0025	2.4
COc1cc2c(cc1OC(C)C)[C@H](c1ccc(Cl)cc1)N(c1ccc(C(C)(O)C3CC4CCC(C3)N4C)cc1)C(=O)C2 (stereo partly drawn) [Example 105, (S)-1-(4-Chloro-phenyl)-2-{4-[1-hydroxy-1-(8-methyl-8-aza-bicyclo[3.2.1]oct-3-yl)-ethyl]-phenyl}-7-isopropoxy-6-methoxy-1,4-dihydro-2H-isoquinolin-3-one]	4.12	0.0043	2.25
COc1cc2c(cc1OC(C)C)[C@H](c1ccc(Cl)cc1)N(c1ccc(C(C)(O)[C@H]3CCCNC3)cc1)C(=O)C2 (stereo partly drawn) [Example 180, (S)-1-(4-Chloro-phenyl)-2-[4-((S)-1-hydroxy-1-piperidin-3-yl-ethyl)-phenyl]-7-isopropoxy-6-methoxy-1,4-dihydro-2H-isoquinolin-3-one]			2.25
COc1cc2c(cc1OC(C)C)[C@H](c1ccc(Cl)cc1)N(c1ccc(C(C)(O)[C@H]3CCCN(C)C3)cc1)C(=O)C2 (stereo partly drawn) [Example 181, (S)-1-(4-Chloro-phenyl)-2-{4-[1-hydroxy-1-((S)-1-methyl-piperidin-3-yl)-ethyl]-phenyl}-7-isopropoxy-6-methoxy-1,4-dihydro-2H-isoquinolin-3-one]			5.13
COc1cc2c(cc1OC(C)C)[C@H](c1ccc(Cl)cc1)N(c1ccc(C(C)(O)[C@H]3CCCN(C4COC4)C3)cc1)C(=O)C2 (stereo partly drawn) [Example 183, (S)-1-(4-Chloro-phenyl)-2-{4-[1-hydroxy-1-((S)-1-oxetan-3-yl-piperidin-3-yl)-ethyl]-phenyl}-7-isopropoxy-6-methoxy-1,4-dihydro-2H-isoquinolin-3-one]			8.78

These reach a lower IC50 [3]. Values come first.

IC50 [1] [µM]	IC50 [2] [µM]	IC50 [3] [nM]	SMILES
3.58	0.0028	1.92	COc1cc2c(cc1OC(C)C)[C@H](c1ccc(Cl)cc1)N(c1ccc(C(C)(O)C3CC4CCCC(C3)S4(=O)=O)cc1)C(=O)C2 (mixture of isomers) [Example 175, (S)-1-(4-Chloro-phenyl)-2-{4-[1-(9,9-dioxo-9-thia-bicyclo[3.3.1]non-3-yl)-1-hydroxy-ethyl]-phenyl}-7-isopropoxy-6-methoxy-1,4-dihydro-2H-isoquinolin-3-one]
2.16	0.0023	1.85	COc1cc2c(cc1OC(C)C)[C@H](c1ccc(Cl)cc1)N(c1ccc(C(C)(O)C3CCN(C(=O)COC(C)=O)CC3)cc1)C(=O)C2 (mixture of isomers) [Example 91, Acetic acid 2-[4-(1-{4-[(S)-1-(4-chloro-phenyl)-7-isopropoxy-6-methoxy-3-oxo-3,4-dihydro-1H-isoquinolin-2-yl]-phenyl}-1-hydroxy-ethyl)-piperidin-1-yl]-2-oxo-ethyl ester]
2.71	0.0036	1.84	COc1cc2c(cc1OC(C)C)[C@H](c1ccc(Cl)cc1)N(c1ccc(C(C)(O)C3CCN(C(=O)CO)CC3)cc1)C(=O)C2 (mixture of isomers) [Example 92, (S)-1-(4-Chloro-phenyl)-2-(4-{1-hydroxy-1-[1-(2-hydroxy-acetyl)-piperidin-4-yl]-ethyl}-phenyl)-7-isopropoxy-6-methoxy-1,4-dihydro-2H-isoquinolin-3-one]
2.31	0.0026	1.38	COc1cc2c(cc1OC(C)C)[C@H](c1ccc(Cl)cc1)N(c1ccc(C(C)(O)C3CCN(C(=O)F)CC3)cc1)C(=O)C2 (mixture of isomers) [Example 90, 4-(1-{4-[(S)-1-(4-Chloro-phenyl)-7-isopropoxy-6-methoxy-3-oxo-3,4-dihydro-1H-isoquinolin-2-yl]-phenyl}-1-hydroxy-ethyl)-piperidine-1-carbonyl fluoride]
2.18	0.0021	1.35	COc1cc2c(cc1OC(C)C)[C@H](c1ccc(Cl)cc1)N(c1ccc(C(C)(O)C3CCN(C4COC4)CC3)cc1)C(=O)C2 (stereo partly drawn) [Example 96, (S)-1-(4-Chloro-phenyl)-2-{4-[1-hydroxy-1-(1-oxetan-3-yl-piperidin-4-yl)-ethyl]-phenyl}-7-isopropoxy-6-methoxy-1,4-dihydro-2H-isoquinolin-3-one]
		1.28	COc1cc2c(cc1OC(C)C)[C@H](c1ccc(Cl)cc1)N(c1ccc(C(C)(O)[C@H]3CCCN(C(=O)OC(C)(C)C)C3)cc1)C(=O)C2 (stereo partly drawn) [Example 179, (S)-3-(1-{4-[(S)-1-(4-Chloro-phenyl)-7-isopropoxy-6-methoxy-3-oxo-3,4-dihydro-1H-isoquinolin-2-yl]-phenyl}-1-hydroxy-ethyl)-piperidine-1-carboxylic acid tert-butyl ester]
2.84	0.0028	1.2	COc1cc2c(cc1OC(C)C)[C@H](c1ccc(Cl)cc1)N(c1ccc(C(C)(O)C3CC4CCC(C3)O4)cc1)C(=O)C2 (mixture of isomers) [Example 158, (S)-1-(4-Chloro-phenyl)-2-{4-[1-hydroxy-1-(8-oxabicyclo[3.2.1]oct-3-yl)-ethyl]-phenyl}-7-isopropoxy-6-methoxy-1,4-dihydro-2H-isoquinolin-3-one]
1.75	0.0016	1.06	COc1cc2c(cc1OC(C)C)[C@H](c1ccc(Cl)cc1)N(c1ccc([C@@](C)(O)C3CCN(C)CC3)cc1)C(=O)C2 (single isomer, unassigned) [Example 94]
		0.329	COc1cc2c(cc1OC(C)C)[C@H](c1ccc(Cl)cc1)N(c1ccc(C(C)(O)[C@H]3CCCN(C=O)C3)cc1)C(=O)C2 (stereo partly drawn) [Example 182, (S)-3-(1-{4-[(S)-1-(4-Chloro-phenyl)-7-isopropoxy-6-methoxy-3-oxo-3,4-dihydro-1H-isoquinolin-2-yl]-phenyl}-1-hydroxy-ethyl)-piperidine-1-carbaldehyde]
